Reference: US20260159497A1, “SOLID FORMS OF A COMPLEMENT FACTOR B INHIBITOR” (Novartis Pharma AG, priority 2022, published 2026)
Where two headings read alike, the source gives them in different places.

Tests used:
Format in all cases: physicochemical
[1] = Water content by Karl Fischer titration; details: ambient conditions; relative to total weight of the salt / free form
[2] = Solubility in Simulated Fluids at 37° C.; details: for solubility at 30 min / solubility at 24 h: 37 °C, thermodynamic from solid; for solubility at 30 min: read-out: Solubility (mg/mL) 30 min; for solubility at 24 h: read-out: Solubility (mg/mL) 24 h
Text: Solubility data of Form A (S)-4-(2,2-difluoro-7-((5-methoxy-7-methyl-1H-indol-4-yl)methyl)-7-azaspiro[3.5]nonan-6-yl)benzoic acid, Form B (S)-4-(2,2-difluoro-7-((5-methoxy-7-methyl-1H-indol-4-yl)methyl)-7-azaspiro[3.5]nonan-6-yl)benzoic acid p-toluene sulfonic acid salt, Form C (S)-4-(2,2-difluoro-7-((5-methoxy-7-methyl-1H-indol-4-yl)methyl)-7-azaspiro[3.5]nonan-6-yl)benzoic acid p-toluene sulfonic acid salt, and Form D (S)-4-(2,2-difluoro-7-((5-methoxy-7-methyl-1H-indol-4-yl)methyl)-7-azaspiro[3.5]nonan-6-yl)benzoic acid hydrochloride salt in Simulated Fluids at 37° C.

[3] = Intrinsic dissolution rate
[4] = Flow properties
Text: See U.S. Pat. No. 11,642,315.

[5] = Dynamic vapor sorption (DVS) mass change; details: for Mass change by DVS, Desorption (%) / Mass change by DVS, Sorption (%): Table 5, 25 degree C., based on dry weight; for Mass change by DVS, 1st Desorption (%) / Mass change by DVS, 1st Sorption (%) / Mass change by DVS, 2nd Desorption (%) / Mass change by DVS, 2nd Sorption (%): Table 6, DVS at 25 degree C.
Text: [table] The mass change by DVS isotherm (2 cycles 40-0-95-0-40% RH) are in the tables below. The mass change is based on the dry weight of each.

[6] = pH 2.0, 0.01 M HCl, 37° C., 100 rpm, 120 min
[7] = pH 6.5, phosphate buffer 50 mM (PBS-V1), 37° C., 100 rpm, 120 min

In the case of `COc1cc(C)c2[nH]ccc2c1CN1CCC2(C[C@H]1c1ccc(C(=O)O)cc1)CC(F)(F)C2.Cc1ccc(S(=O)(=O)O)cc1` [Form B, (S)-4-(2,2-difluoro-7-((5-methoxy-7-methyl-1H-indol-4-yl)methyl)-7-azaspiro[3.5]nonan-6-yl)benzoic acid p-toluene sulfonate], the “water content by Karl Fischer titration” value [1] is reported as 2.3 % w/w, the solubility at 30 min ([2]; fassif, FaSSIF, 30 min) is reported as over 2 mg/mL and the solubility at 30 min ([2]; fessif, FeSSIF, 30 min) is reported as over 2 mg/mL. For the same compound, the solubility at 24 h ([2]; fessif, FeSSIF, 24 h) was over 2 mg/mL, the solubility at 30 min ([2]; pH 7, water, Water, initial pH 7.00, 30 min) was 0.48 mg/mL and the solubility at 24 h ([2]; pH 7, water, Water, initial pH 7.00, 24 h) was 0.56 mg/mL. The “pH at 24 h” value ([2]; FaSSGF) was 1.5, the “Solubility (mg/mL) 30 min” value ([2]; FaSSGF, 30 min) was 0.40 mg/mL and the “Solubility (mg/mL) 24 h” value ([2]; FaSSGF, 24 h) was 0.54 mg/mL. The “pH at 24 h” value ([2]; FaSSIF) was 6.13, the “Solubility (mg/mL) 24 h” value ([2]; FaSSIF, 24 h) was 0.53 (salt mg/mL and the “pH at 24 h” value ([2]; FeSSIF) was 4.87. The “pH at 24 h” value ([2]; Water, initial pH 7.00) was 3.60, the intrinsic dissolution rate ([3]; PBS-V1 (pH 6.5)) was 0.18 mg/min/cm^2 and the intrinsic dissolution rate ([3]; pH 2.0, 0.01 M HCl) was 0.015 mg/min/cm^2. For the same compound, the “form change after intrinsic dissolution” value [3, 6] was “(No form change)”, the intrinsic dissolution rate [3, 6] was 0.015 mg · min^−1 · cm^−2 and the “form change after intrinsic dissolution” value [3, 7] was “(No form change”. For the same compound, the intrinsic dissolution rate [3, 7] was 0.18 mg · min^−1 · cm^−2, the bulk density [4] was “good bulk density” and the flowability [4] was “good flowability”. The “water sorption and desorption behavior” value [5] was “reversible water sorption and desorption behavior with no hysteresis”, the “maximum water uptake in DVS” value ([5]; 95% RH at 25° C.) was 2.67% and the “moisture absorbed by DVS (absorbs up to)” value ([5]; 95% RH at 25° C.) was “up to 2.7%”. For the same compound, the “Mass change by DVS, Desorption (%)” value ([5]; 0% RH) was 0.00%, the “Mass change by DVS, Sorption (%)” value ([5]; 0% RH) was 0.00% and the “Mass change by DVS, Desorption (%)” value ([5]; 10% RH) was 1.11%. The “Mass change by DVS, Sorption (%)” value ([5]; 10% RH) was 1.08%, the “Mass change by DVS, Desorption (%)” value ([5]; 20% RH) was 1.66% and the “Mass change by DVS, Sorption (%)” value ([5]; 20% RH) was 1.64%. The “Mass change by DVS, Desorption (%)” value ([5]; 30% RH) was 1.93%, the “Mass change by DVS, Sorption (%)” value ([5]; 30% RH) was 1.92% and the “Mass change by DVS, Desorption (%)” value ([5]; 40% RH) was 2.10%. The “Mass change by DVS, Sorption (%)” value ([5]; 40% RH) was 2.09%, the “Mass change by DVS, Desorption (%)” value ([5]; 50% RH) was 2.22% and the “Mass change by DVS, Sorption (%)” value ([5]; 50% RH) was 2.21%. For the same compound, the “Mass change by DVS, Desorption (%)” value ([5]; 60% RH) was 2.32%, the “Mass change by DVS, Sorption (%)” value ([5]; 60% RH) was 2.31% and the “Mass change by DVS, Desorption (%)” value ([5]; 70% RH) was 2.39%. For the same compound, the “Mass change by DVS, Sorption (%)” value ([5]; 70% RH) was 2.38%, the “Mass change by DVS, Desorption (%)” value ([5]; 80% RH) was 2.46% and the “Mass change by DVS, Sorption (%)” value ([5]; 80% RH) was 2.45%. For the same compound, the “Mass change by DVS, Desorption (%)” value ([5]; 90% RH) was 2.54%, the “Mass change by DVS, Sorption (%)” value ([5]; 90% RH) was 2.54% and the “Mass change by DVS, Desorption (%)” value ([5]; 95% RH) was 2.62%. For the same compound, the “Mass change by DVS, Sorption (%)” value ([5]; 95% RH) was 2.62%, the “Mass change by DVS, 1st Desorption (%)” value ([5]; 0% RH) was 0.00% and the “Mass change by DVS, 1st Sorption (%)” value ([5]; 0% RH) was 0.00%. The “Mass change by DVS, 2nd Desorption (%)” value ([5]; 0% RH) was −0.01%, the “Mass change by DVS, 2nd Sorption (%)” value ([5]; 0% RH) was −0.01% and the “Mass change by DVS, 1st Desorption (%)” value ([5]; 10% RH) was 1.13%. The “Mass change by DVS, 1st Sorption (%)” value ([5]; 10% RH) was 1.11%, the “Mass change by DVS, 2nd Desorption (%)” value ([5]; 10% RH) was 1.13% and the “Mass change by DVS, 2nd Sorption (%)” value ([5]; 10% RH) was 1.11%. For the same compound, the “Mass change by DVS, 1st Desorption (%)” value ([5]; 20% RH) was 1.70%, the “Mass change by DVS, 1st Sorption (%)” value ([5]; 20% RH) was 1.69% and the “Mass change by DVS, 2nd Desorption (%)” value ([5]; 20% RH) was 1.70%. The “Mass change by DVS, 2nd Sorption (%)” value ([5]; 20% RH) was 1.68%, the “Mass change by DVS, 1st Desorption (%)” value ([5]; 30% RH) was 1.98% and the “Mass change by DVS, 1st Sorption (%)” value ([5]; 30% RH) was 1.97%. The “Mass change by DVS, 2nd Desorption (%)” value ([5]; 30% RH) was 1.98%, the “Mass change by DVS, 2nd Sorption (%)” value ([5]; 30% RH) was 1.97% and the “Mass change by DVS, 1st Desorption (%)” value ([5]; 40% RH) was 2.16%. For the same compound, the “Mass change by DVS, 1st Sorption (%)” value ([5]; 40% RH) was 2.15%, the “Mass change by DVS, 2nd Desorption (%)” value ([5]; 40% RH) was 2.16% and the “Mass change by DVS, 2nd Sorption (%)” value ([5]; 40% RH) was 2.15%. The “Mass change by DVS, 1st Sorption (%)” value ([5]; 50% RH) was 2.28%, the “Mass change by DVS, 2nd Desorption (%)” value ([5]; 50% RH) was 2.29% and the “Mass change by DVS, 1st Sorption (%)” value ([5]; 60% RH) was 2.37%. The “Mass change by DVS, 2nd Desorption (%)” value ([5]; 60% RH) was 2.38%.
